Assays:
Assay in all cases: combination Emax (second highest fraction inhibited in the dose matrix, 72 h); higher = more inhibition; extreme values may be limits of the assay
[1] = test system: CCRF-CEM (T-Lymphoblastic Leukemia)
Method in brief: (§1)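 Bliss excess equals the observed combination effect minus the expected value EA + EB − EA·EB, where EA and EB are the effects of each agent alone. Combination Emax is the second-highest inhibition within the matrix. Inhibition was scaled from CellTiter-Glo 2.0 luminescence, with 0 set by vehicle wells and 1 by blank wells, after 72 hours of two-drug dosing of cells plated in 1536-well plates.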

[2] = test system: LS-180 (Colorectal Carcinoma)
Method in brief: as §1

[3] = test system: SNU-5 (Gastric Carcinoma)
Method in brief: as §1

ES4 (Ewing's Sarcoma) = test system: ES4 (Ewing's Sarcoma)
Method in brief: as §1

[4] = test system: HuP-T4 (Pancreatic Carcinoma)
Method in brief: as §1

[5] = test system: CAL-148 (Breast Carcinoma)
Method in brief: as §1

[6] = test system: Hs-578-T (Breast Carcinoma)
Method in brief: as §1

[7] = test system: KYSE-520 (Esophageal Squamous Cell Carcinoma)
Method in brief: as §1

[8] = test system: Ramos-2G6-4C10 (Burkitt's Lymphoma)
Method in brief: as §1

[9] = test system: LU-135 (Small Cell Lung Carcinoma)
Method in brief: as §1

[10] = test system: COLO-205 (Colorectal Carcinoma)
Method in brief: as §1

[11] = test system: LB831-BLC (Bladder Carcinoma)
Method in brief: as §1

AGS (Gastric Carcinoma) = test system: AGS (Gastric Carcinoma)
Method in brief: as §1

NOS-1 (Osteosarcoma) = test system: NOS-1 (Osteosarcoma)
Method in brief: as §1

[12] = test system: HT-1376 (Bladder Carcinoma)
Method in brief: as §1

[13] = test system: DoTc2-4510 (Cervical Carcinoma)
Method in brief: as §1

42-MG-BA (Glioblastoma) = test system: 42-MG-BA (Glioblastoma)
Method in brief: as §1

[14] = test system: TE-15 (Esophageal Squamous Cell Carcinoma)
Method in brief: as §1

[15] = test system: TCCSUP (Bladder Carcinoma)
Method in brief: as §1

HOS (Osteosarcoma) = test system: HOS (Osteosarcoma)
Method in brief: as §1

SMILES	combination Emax [1]	combination Emax [2]	combination Emax [3]	combination Emax (ES4 (Ewing's Sarcoma))	combination Emax [4]	combination Emax [5]	combination Emax [6]	combination Emax [7]	combination Emax [8]	combination Emax [9]	combination Emax [10]	combination Emax [11]	combination Emax (AGS (Gastric Carcinoma))	combination Emax (NOS-1 (Osteosarcoma))	combination Emax [12]	combination Emax [13]	combination Emax (42-MG-BA (Glioblastoma))	combination Emax [14]	combination Emax [15]	combination Emax (HOS (Osteosarcoma))
NC1(C(=O)N[C@@H](CCO)c2ccc(Cl)cc2)CCN(c2ncnc3[nH]ccc23)CC1 [Capivasertib] + CCN(CCO)CCCOc1ccc2c(Nc3cc(CC(=O)Nc4cccc(F)c4)[nH]n3)ncnc2c1 [AZD2811] (first compound max 10 µM, 7x7, partner max 1 µM)	1	0.312	0.499	0.422	0.322	1	0.732	0.542	0.807	0.932	0.831	0.482	0.706	0.355	0.156	0.279	0.782	0.449	0.389	0.408
NC1(C(=O)N[C@@H](CCO)c2ccc(Cl)cc2)CCN(c2ncnc3[nH]ccc23)CC1 [Capivasertib] + COc1nnc2ccc(N3CCC(c4ccc(OCCN5CCN(C)C(=O)[C@H]5C)cc4)CC3)nn12 [AZD5153] (first compound max 10 µM, 7x7, partner max 1 µM)	0.905	0.694	0.564	0.624	0.442	1	0.887	0.668	0.997	0.969	0.808	0.608	0.944	0.806	0.108	0.317	0.813	0.693	0.35	0.632
NC1(C(=O)N[C@@H](CCO)c2ccc(Cl)cc2)CCN(c2ncnc3[nH]ccc23)CC1 [Capivasertib] + C[C@@H]1COCCN1C2=NC(=NC(=C2)C3(CC3)[S@](=N)(=O)C)C4=C5C=CNC5=NC=C4 [AZD6738] (first compound max 10 µM, 7x7, partner max 10 µM)	0.983	0.825	0.919	0.851	0.446	0.986	0.823	0.678	0.922	0.793	0.637	0.539	0.837	0.68	0.377	0.45	0.775	0.879	0.685	0.844
NC1(C(=O)N[C@@H](CCO)c2ccc(Cl)cc2)CCN(c2ncnc3[nH]ccc23)CC1 [Capivasertib] + Cn1cnc2c(F)c(Nc3ccc(Br)cc3Cl)c(C(=O)NOCCO)cc21 [Selumetinib] (first compound max 10 µM, 7x7, partner max 10 µM)	0.485	0.771	0.756	0.398	0.396	0.981	0.746	0.583	0.435	0.352	0.778	0.545	0.953	0.388	0.18	0.408	0.737	0.633	0.373	0.491
Cc1nc(Nc2ncc(C(=O)Nc3c(C)cccc3Cl)s2)cc(N2CCN(CCO)CC2)n1 [Dasatinib] + CC(=O)Nc1cccc(-n2c(=O)n(C3CC3)c(=O)c3c(Nc4ccc(I)cc4F)n(C)c(=O)c(C)c32)c1 [Trametinib] (first compound max 2 µM, 7x7, partner max 1 µM)	0.149	0.747	0.654	0.215	0.486	0.254	0.922	0.784	0.238	0.0891	0.728	0.493	1	0.921	0.241	0.469	0.971	0.782	0.266	0.397
COc1cccc2c1C(=O)c1c(O)c3c(c(O)c1C2=O)C[C@@](O)(C(=O)CO)C[C@@H]3O[C@H]1C[C@H](N)[C@H](O)[C@H](C)O1 [Doxorubicin] + Cc1cc2ncnn2cc1Nc1ncc2c(n1)n(C1CCOCC1)c(=O)n2C [AZD7648] (first compound max 1 µM, 7x7, partner max 10 µM)	1	0.736	0.823	0.945	0.657	1	0.856	0.295	0.951	0.817	0.727	0.871	0.986	0.369	0.182	0.844	0.925	0.721	0.665	0.972

Source: the supplement of paper PMC11061612
